Results: US5591740A, “Use of debromohymenialdisine for treating osteoarthritis” (OsteoArthritis Sciences, Incorporated, priority 1995, dated 1997)

What was measured:
[1] = test system: chondrocytes, interleukin-1 induced proteoglycan degradation; experiment: Chondrocyte cell culture matrix breakdown assay (IL-1 induced 35S proteoglycan release); assay type: cell-based, calf; conditions: for IC50: Bos taurus, chondrocyte matrix breakdown assay, 1 ng/ml rhIL-1α, 22-24 hours, read-out: IC50, inhibition of proteoglycan degradation; for dose response curve (FIG. 1): percent inhibition over a range of concentrations
Method: A cell culture assay was used to-measure the ability of the test compounds to slow the degradation of the extracellular matrix by a metalloproteinase. This assay measured the amount ^35 S released from chondrocytes grown in a media with ^35 S labeled sodium sulfate. The cell culture assay was carried out as follows:
Two or three 1 to 3 week old calf joints were obtained from an abattoir. The proximal end of the shank was about 4-5" long to facilitate immobilization in the holder. The joint was kept cool and transported on ice. The exterior of the intact joints was washed well with a suitable anti-microbial soap, rinsed clean with warm water, rinsed in betadine and then finally rinsed with 70% ethanol. Up to this point all steps were done in a manner to ensure that the joint was kept as clean as possible. All subsequent steps were performed in a sterile field (i.e., in a Edgeguard laminar flow tissue culture hood). The joint was immobilized and the synovial fluid was aspirated with a needle and syringe. The joint was then cut open to expose the articular cartilage using a #21 scalpel. Using locking hemostats, forceps and a #15 scalpel, the cartilage was excised in full thickness pieces. Care was taken not to cut too deep into the subchondral bone to prevent bleeding. The cartilage pieces were placed into a 50 mL centrifuge tube containing 25 mL of Delbecco's phosphate buffered saline (D-PBS) supplemented with 1% antibiotic solution (penicillin, streptomycin and fungizone; GIBCO/BRL). The slices from each joint were then placed into separate 50 mL centrifuge tubes. The D-PBS was decanted and replaced with 25 mL of fresh D-PBS supplemented with antibiotics and subsequently agitated gently.
The cartilage pieces were transferred to a fresh 50 mL centrifuge tube and rinsed once more with 25 mL of D-PBS minus antibiotics. An enzymatic digestion solution containing 1 mg/mL of hyaluronidase in serum-free 1:1 DMEM/Ham's F-12 (DMEM/F12) was prepared. This solution was filter sterilized with […] Milex--GV filter and kept on ice until ready to use. The cartilage pieces were digested with approximately 5 mL of hyaluronidase solution per joint for 2×15 minutes at 37° C. in the 50 mL centrifuge tube with gentle agitation at the 15 minute mark. This procedure removed residual hyaluronic acid from the surface of the chips. The enzymatic digestion solution was then aspirated and the cartilage pieces were rinsed with 25 mL of D-PBS.
A second enzymatic digestion solution containing 2.5 mg trypsin and 2 mg collagenase P per mL serum-free DMEM/F12 was prepared. This solution was also filter sterilized with a […] Millex--GV filter and kept on ice until ready to use. The cartilage pieces were digested with approximately 5 mL of trypsin: collagenase solution per joint for 2×15 minutes at 37° C. in the 50 mL centrifuge tube with gentle agitation at the 15 minute mark. This procedure removed the synovial fibroblasts and any adherent connective tissue from the surface of the chips. The enzymatic digestion solution was then carefully removed and saved and the cartilage pieces were rinsed with 25 mL of D-PBS.
A third enzymatic solution containing 2 mgs of collagenase P (BMB) per mL serum-free DMEM/F12 was prepared. This solution was filter sterilized with a […] Millex--GV filter and kept on ice until ready to use. The pre-digested cartilage pieces were finally digested with approximately 20 mL of enzymatic digestion solution per joint for 5-6 hours at 37° C. in a Bellco stirring digestion flask, at which point the cartilage was fully digested away.
The enzymes in the synovial fibroblast and chondrocyte digest were neutralized by addition of an equal volume of DMEM/F12 supplemented with 5% fetal bovine serum. Fibroblasts were plated in DMEM at a cellular density of 6.6×10^3 cells per cm^2. […]

[2] = test system: bovine cartilage explants, interleukin-1 stimulated proteoglycan degradation; experiment: Bovine articular cartilage explant assay (IL-1 induced 35S-GAG release); assay type: cell-based, bovine (1 to 3 week old calf); conditions: for IC50: Bos taurus, bovine cartilage explants, rhIL-1α 5 ng/mL, 3-4 days, read-out: IC50, inhibition of interleukin-1 stimulated proteoglycan degradation; for dose response curve (FIG. 2): percent inhibition over a range of concentrations
Excerpt: A tissue culture assay was used to measure the ability of the compounds of the present invention to slow the degradation of the extracellular matrix by metalloproteinases. This assay measured the amount of ^35 S-glycosaminoglycan (^35 S-GAG) released from labeled bovine cartilage explants.
Knee joints from a 1 to 3 week old calf were obtained immediately after sacrifice from the Abattoir and then transported on ice. The intact joints were washed well with tap water and soaked in 50% (v/v) Povidine iodine solution, obtained from Burre National, Inc., Baltimore, Md. All subsequent steps were performed in a laminar flow tissue culture hood using standard sterile technique. The joint was immobilized in a shank holder and the joint capsule was cut open to expose the articular cartilage. Cartilage explant plugs, approximately 15 mg wet weight, were removed from the flat articulating surfaces in the lower-most region of the knee joint using a sterile steel cork-borer and collected in a 250 mL roller bottle containing about 100 mL fresh Delbecco's minimum essential medium (DMEM), obtained from Gibco BRC, Life Technologies, Gaithersburg, Md., containing 4.5 g/l (D)-glucose and (L)-glutamine, without sodium pyruvate. The fresh media also contained enough Hepes buffer and sodium bicarbonate such that the pH was about 7.4. The media was then further supplemented just before use with 100 units Penicillin, 100 μg Streptomycin, and 50 μg (L)-ascorbic acid per mL of medium.
Once collected, the explant plugs were washed four times with 50 mL fresh DMEM. The plugs were then placed in the incubator for a minimum of 1 hour to equilibrate, before proceeding to make disks from the articulating surface of each plug. A 1 mm thick disk was sliced from individual plugs from the end that was the articulating surface of the joint. The plug was held steady in the sterile template (4 mm diameter ×1.5 mm deep) using sterile forceps. A scalpel blade was used to carefully slice off the disk. Only the superficial articulating surface responded well in culture.
Individual disks obtained were transferred to a tissue culture flask containing about 100 mL fresh media. The flask containing the disks was placed in an incubator at 37° C. (with 5% CO2, 95% air) and allowed to equilibrate overnight and at least one additional day before labeling. When ready to label, the old media was replaced with 50 mL fresh media containing about 500 μCi ^35 S-Sodium Sulfate. The plugs were labeled in bulk for about 48 hours. […]
The TC plates were then placed in the incubator and cultured for 3-4 days (initial incubation with rhIL-1α alpha takes at least 3 days to stimulate endogenous metalloproteinases). A 50 μL aliquot of media from each TC plate was saved and counted. […]

[3] = test system: osteoarthritis in Hartley guinea pigs following surgical induction of joint instability; experiment: Slowing the development of osteoarthritis in the Hartley guinea pig model (surgically induced joint instability, Mankin scoring); assay type: in vivo, male Hartley guinea pigs; set-up: Structure (Mankin criteria), mean / Cells (Mankin criteria), mean / Safranin O (Mankin criteria), mean / mean Mankin score: scale not given here; conditions: for Cells (Mankin criteria), mean: untreated 1.6; for Safranin O (Mankin criteria), mean: untreated 2.3; for Structure (Mankin criteria), mean: untreated 4.6; for mean Mankin score: untreated 10.3, placebo 10.0
Method: Thirty five male Hartley guinea pigs 40 days old, were purchased from Charles River Laboratories. Each group consisted of 5 animals that were euthanized at 1, 2, 3, 4, 5, 6 and 8 months post-surgery. Ketamine 40 mg/kg, Xylazine 5 mg/kg and Fentanyl 0.1 mg/kg sc were used for anesthesia. Naloxone hydrochloride was given at 0.1 mg/kg following surgery. For radiography, animals were sedated with Xylazine 10 mg/kg sc and superficially anesthetized with Ketamine 20 mg/kg sc.
Surgery was performed under direct visualization using a dissecting microscope at 7.5 fold magnification. A medial longitudinal parapatellar incision was followed by division of the capsule and synovial layers. A partial medical menisectomy was followed by transection of the anterior cruciate ligament. Confirmation of the ligament transection was obtained by a positive anterior drawer sign. The capsule was continuously sutured with 5-0 VICRYL™ and the skin was closed with staples.
After the animals were sacrificed, joints were prepared for histological examination by standard techniques. Joints were fixed for 14 days in 10% formalin. Knees were then decalcified in 20% Formic acid in PBS, pH 7.2 for 24 hours. Sections cut at 5μ were stained with Safranin O, Fast Green and Hematoxylin. Radiographic evaluation was performed with antero-posterior and lateral views. A dental X-Ray unit and DF-50 film were used. Histopathological scoring was performed by two blinded, independent observers using the Mankin criteria (Mankin, H. J., "Biochemical and Metabolic Aspects of Osteoarthritis," Orthopedic Clinics of North America, 2:19-30 (1971). This evaluation system grades the structural defects, cellular changes, loss of proteoglycan as reflected by Safranin 0, and disruption of an antatomic landmark reflecting the transition to calcified cartilage. The Mankin scoring criteria are listed below:
Surgery was performed on twenty-four male Hartley guinea pigs during which the joint instability was induced according to the procedure described in Example 4.
The animals were divided into four groups of six. Beginning two weeks following surgery, each animal in the first two groups was given weekly intraarticular injections into the surgically treated joints of 0.3 mg (6 mg/ml) or 1.5 mg of Z-debromohymenialdisine (30 mg/ml) in a vehicle containing carboxymethylcellulose (2 mg/ml saline) and polysorbate 80 (0.5 mg/ml saline). Total volume of the injection was 50 μl. Group III animals were given weekly intraarticular injections of a placebo, while Group IV animals were left untreated. The treatments were continued for seven weeks.
At the termination of the system, the animals were euthanized and […] evaluation of the knees was performed as described in Example 5 using the Mankin criteria. The results of the histological evaluation at seven weeks post surgery are depicted in FIG. 4.

[4] = 0.3 or 1.5 mg/week intraarticular

Structure (SMILES)	IC50 [1] [µM]	IC50 [2] [µM]	dose response curve (FIG. 2) [2]	dose response curve (FIG. 1) [1]	Cells (Mankin criteria), mean ([3]; 0.3 mg weekly intraarticular)	Safranin O (Mankin criteria), mean ([3]; 0.3 mg weekly intraarticular)	Structure (Mankin criteria), mean ([3]; 0.3 mg weekly intraarticular)	mean Mankin score ([3]; 0.3 mg/week intraarticular)	Cells (Mankin criteria), mean ([3]; 1.5 mg weekly intraarticular)	Safranin O (Mankin criteria), mean ([3]; 1.5 mg weekly intraarticular)	Structure (Mankin criteria), mean ([3]; 1.5 mg weekly intraarticular)	mean Mankin score ([3]; 1.5 mg/week intraarticular)	disease progression, result in words [3, 4]	structural and biochemical changes in developing osteoarthritis (loss of Safranin O staining), result in words [3, 4]	joint degeneration and cartilage degradation, result in words ([3]; animal model, weekly intraarticular)
O=C1NC(=O)/C(=C2/CCNC(=O)c3[nH]c(Br)cc32)N1 [Axinohydantoin (3), axinohydantoin]	> 50	–	–	–	–	–	–	–	–	–	–	–	–	–	–
NC1=N/C(=C2\CCNC(=O)c3[nH]ccc32)C(=O)N1 [E-debromohymenialdisine]	6	50	broad, shallow dose response curve	broad, shallow dose response curve	–	–	–	–	–	–	–	–	–	–	–
NC1=N/C(=C2/CCNC(=O)c3[nH]ccc32)C(=O)N1 [Z-debromohymenialdisine]	0.8	2	broad, shallow dose response curve	broad, shallow dose response curve	1.2	1.5	3.5	6.7	1.5	1.1	1.6	5.5	significant reduction in disease progression	able to diminish the structural and biochemical changes	effective in slowing joint degeneration and cartilage degradation
NC1=NC(=O)/C(=C2\CCNC(=O)c3[nH]c(Br)cc32)N1 [Hymenialdisine (2), hymenialdisine]	> 50	–	–	–	–	–	–	–	–	–	–	–	–	–	–
